The record followed here is patent publication US7842808B2, “Anti-migraine spirocycles” (Bristol-Myers Squibb Company, priority 2002, dated 2010).

In this assay the target is T1, CGRP receptor (SK-N-MC cell membranes) (Homo sapiens, UniProt O60894+Q16602).
T1 construct: endogenous in cells; host or cells: SK-N-MC cells (membrane homogenate)
T1 sequence (Q16602 23-461): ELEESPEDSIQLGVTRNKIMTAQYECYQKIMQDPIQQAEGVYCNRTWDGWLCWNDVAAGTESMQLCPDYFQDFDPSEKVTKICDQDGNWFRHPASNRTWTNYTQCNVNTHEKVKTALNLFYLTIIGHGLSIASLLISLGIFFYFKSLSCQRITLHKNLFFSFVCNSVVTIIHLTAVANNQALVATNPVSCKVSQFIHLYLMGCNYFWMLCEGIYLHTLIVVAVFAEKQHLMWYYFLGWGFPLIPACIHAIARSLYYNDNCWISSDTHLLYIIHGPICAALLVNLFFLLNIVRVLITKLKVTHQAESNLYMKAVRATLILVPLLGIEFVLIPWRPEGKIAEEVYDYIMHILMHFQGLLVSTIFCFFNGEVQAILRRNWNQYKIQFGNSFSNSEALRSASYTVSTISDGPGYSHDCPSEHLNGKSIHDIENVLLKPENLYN
T1 sequence (O60894 27-148): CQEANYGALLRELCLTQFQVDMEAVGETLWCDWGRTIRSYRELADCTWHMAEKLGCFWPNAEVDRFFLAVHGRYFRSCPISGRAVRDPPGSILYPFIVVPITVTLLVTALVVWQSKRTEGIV
Description: CGRP Binding Assay ([125I]-CGRP radioligand binding, SK-N-MC homogenate). As to conditions: displacement of [125I]-CGRP, SK-N-MC homogenate; read-out: CGRP binding IC50. The method, then:
Tissue Culture. SK-N-MC cells were grown at 37° C. in 5% CO2 as a monolayer in medium consisting of MEM with Earle's salts and L-glutamine (Gibco) supplemented with 10% fetal bovine serum (Gibco).
Cell Pellets. […] The cells were transferred from plates to polypropylene tubes (16×100 mm) and homogenized using a polytron. Homogenates were centrifuged at 32,000×g for 30 min. The pellets were resuspended in cold hypotonic lysis buffer with 0.1% mammalian protease inhibitor cocktail (Sigma) and assayed for protein concentration. The SK-N-MC homogenate was then aliquoted and stored at −80° C. until needed.
Radioligand Binding Assay. The compounds of invention were solubilized and carried through serial dilutions using 100% DMSO. Aliquots from the compound serial dilutions were further diluted 25 fold into assay buffer (50 mM Tris-Cl pH 7.5, 5 mM MgCl2, 0.005% Triton X-100) and transferred (volume 50 μl) into 96 well assay plates. […] SK-N-MC pellets were thawed, diluted in assay buffer with fresh 0.1% mammalian protease inhibitor cocktail (Sigma), and homogenized again. SK-N-MC homogenate (5 μg/well) was added in a volume of 100 μl. The assay plates were then incubated at room temperature for 2 h. Assays were stopped by addition of excess cold wash buffer (20 mM Tris-Cl pH 7.5, 0.1% BSA) immediately followed by filtration over glass fiber filters (Whatman GF/B) previously soaked in 0.5% PEI. Non-specific binding was defined with 1 μM beta-CGRP. Protein bound radioactivity was determined using a gamma or scintillation counter.
(In general: In a radioligand displacement assay an active substance lowers the binding of a labelled ligand.)
Take `O=C(Nc1ccccc1Cl)N[C@@H](CC(=O)N1CCC(N2Cc3ccccc3NC2=O)CC1)C(=O)N1CCC(N2CCCCC2)CC1` [Example 172]: the IC50 (as a rule, the concentration needed to halve the response being measured) was in the range of 10 to 100 nM.

In the case of `COc1ccccc1NC(=O)N[C@@H](CC(=O)N1CCC(N2Cc3ccccc3NC2=O)CC1)C(=O)N1CCC(N2CCCCC2)CC1` [Example 149], the IC50 was in the range of 10 to 100 nM.

`O=C(C[C@H](NCc1ccccn1)C(=O)N1CCC(N2CCCCC2)CC1)N1CCC(N2Cc3ccccc3NC2=O)CC1` [Example 93, (L)-1-[1,4′]Bipiperidinyl-1′-yl-2-((2′-pyridyl)-methyl-amino)-4-[4-(2-oxo-1,4-dihydro-2H-quinazolin-3-yl)-piperidin-1-yl]-butane-1,4-dione]: the IC50 is 100 to 1000 nM.

As for `COc1ccc(NC(=O)N[C@@H](CC(=O)N2CCC(N3Cc4ccccc4NC3=O)CC2)C(=O)N2CCC(N3CCCCC3)CC2)cc1` [Example 181], the IC50 lay within 100 to 1000 nM.

As for `O=C(NC(Cc1ccc(OCc2ccccc2)nc1)C(=O)N1CCC(N2CCCCC2)CC1)N1CCC(N2Cc3ccccc3NC2=O)CC1` (racemic) [Example 59, (±)-4-(2-Oxo-1,4-dihydro-2H-quinazolin-3-yl)-piperidine-1-carboxylic acid[1-(6-benzyloxy-pyridin-3-ylmethyl)-2-[1,4′]bipiperidinyl-1′-yl-2-oxo-ethyl]-amide], the IC50 is 100 to 1000 nM.

On to `O=C(C[C@H](NCc1c[nH]cn1)C(=O)N1CCC(N2CCCCC2)CC1)N1CCC(N2Cc3ccccc3NC2=O)CC1` [Example 98, (L)-1-[1,4′]Bipiperidinyl-1′-yl-2-[(1H-imidazol-4-ylmethyl)-amino]-4-[4-(2-oxo-1,4-dihydro-2H-quinazolin-3-yl)-piperidin-1-yl]-butane-1,4-dione], for which the IC50 is > 1000 nM.

Regarding `Cc1c(Cl)cccc1NC(=O)N[C@@H](CC(=O)N1CCC(N2Cc3ccccc3NC2=O)CC1)C(=O)N1CCC(N2CCCCC2)CC1` [Example 192], the IC50 is 100 to 1000 nM.

Consider `O=C(N[C@@H](CC(=O)N1CCC(N2Cc3ccccc3NC2=O)CC1)C(=O)N1CCC(N2CCCCC2)CC1)c1cc(Cl)cc(Cl)c1` [Example 108], for which the IC50 was in the range of 100 to 1000 nM.

Take `Cc1nc(N[C@@H](CC(=O)N2CCC(N3Cc4ccccc4NC3=O)CC2)C(=O)N2CCC(N3CCCCC3)CC2)nc(N)c1N` [Example 91, (L)-1-[1,4′]Bipiperidinyl-1′-yl-2-(4,5-diamino-6-methyl-pyrimidin-2-ylamino)-4-[4-(2-oxo-1,4-dihydro-2H-quinazolin-3-yl)-piperidin-1-yl]-butane-1,4-dione]: the half-inhibitory concentration (IC50) was 100 to 1000 nM.

For `CCOC(=O)c1ccc(NC(=O)N[C@@H](CC(=O)N2CCC(N3Cc4ccccc4NC3=O)CC2)C(=O)N2CCC(N3CCCCC3)CC2)cc1` [Example 182], the IC50 lay within 100 to 1000 nM.

On to `COc1ccc(CC(=O)N[C@@H](CC(=O)N2CCC(N3Cc4ccccc4NC3=O)CC2)C(=O)N2CCC(N3CCCCC3)CC2)cc1OC` [Example 109], for which the half-maximal inhibitory concentration (IC50) fell in the range of 100 to 1000 nM.

On to `O=C(NCc1ccccc1)N[C@@H](CC(=O)N1CCC(N2Cc3ccccc3NC2=O)CC1)C(=O)N1CCC(N2CCCCC2)CC1` [Example 145], for which the IC50 lay within 100 to 1000 nM.

Regarding `CCCCN1CCN(C(=O)C(Cc2ccc3[nH]ncc3c2)NC(=O)N2CCC(N3Cc4ccccc4NC3=O)CC2)CC1` (stereo not drawn) [Example 40c], the IC50 was > 1000 nM.

In the case of `O=C(N[C@@H](CC(=O)N1CCC(N2Cc3ccccc3NC2=O)CC1)C(=O)N1CCC(N2CCCCC2)CC1)Oc1ccc(Br)cc1` [Example 133], the IC50 is 100 to 1000 nM.

As to `O=C(Nc1ccccc1OC(F)(F)F)N[C@@H](CC(=O)N1CCC(N2Cc3ccccc3NC2=O)CC1)C(=O)N1CCC(N2CCCCC2)CC1` [Example 200], the IC50 fell in the range of 10 to 100 nM.

Turning to `Cc1cc(CC(NC(=O)N2CCC(N3Cc4ccccc4NC3=O)CC2)C(=O)OC2CCC(c3ccccc3)CC2)cc2cn[nH]c12` (stereo not drawn) [Example 41d, 3-(7-Methyl-1H-indazol-5-yl)-2-{[4-(2-oxo-1,4-dihydro-2H-quinazolin-3-yl)-piperidine-1-carbonyl]-amino}-propionic acid 4-phenyl-cyclohexyl ester], the IC50 was in the range of 10 to 100 nM.

With `O=C(N[C@@H](CC(=O)N1CCC(N2Cc3ccccc3NC2=O)CC1)C(=O)N1CCC(N2CCCCC2)CC1)c1cccc(OC(F)(F)F)c1` [Example 121], the IC50 lay in the range of 100 to 1000 nM.

On to `CN1CCN(C(=O)C(Cc2ccc3[nH]ncc3c2)NC(=O)N2CCC(N3Cc4ccccc4NC3=O)CC2)CC1` (stereo not drawn) [Example 40k], for which the IC50 was > 1000 nM.

In the case of `CCOC(=O)C(C)NC(=O)N[C@@H](CC(=O)N1CCC(N2Cc3ccccc3NC2=O)CC1)C(=O)N1CCC(N2CCCCC2)CC1` (stereo partly drawn) [Example 170], the IC50 lay in the range of 100 to 1000 nM.

As to `O=C(Nc1ccccc1)N[C@@H](CC(=O)N1CCC(N2Cc3ccccc3NC2=O)CC1)C(=O)N1CCC(N2CCCCC2)CC1` [Example 143], the IC50 lay in the range of 100 to 1000 nM.

Consider `Cc1ccc(NC(=O)N[C@@H](CC(=O)N2CCC(N3Cc4ccccc4NC3=O)CC2)C(=O)N2CCC(N3CCCCC3)CC2)cc1C` [Example 158], for which the IC50 is 10 to 100 nM.

`O=C(Nc1ccc(Cl)c(C(F)(F)F)c1)N[C@@H](CC(=O)N1CCC(N2Cc3ccccc3NC2=O)CC1)C(=O)N1CCC(N2CCCCC2)CC1` [Example 152]: the IC50 fell in the range of 100 to 1000 nM.

With `O=C(N[C@@H](CC(=O)N1CCC(N2Cc3ccccc3NC2=O)CC1)C(=O)N1CCC(N2CCCCC2)CC1)c1ccc(O)cc1` [Example 100, (L)-N-{1-([1,4′]Bipiperidinyl-1′-carbonyl)-3-oxo-3-[4-(2-oxo-1,4-dihydro-2H-quinazolin-3-yl)-piperidin-1-yl]-propyl}-4-hydroxy-benzamide], the IC50 fell in the range of 100 to 1000 nM.

For `COc1ccc(OC)c(NC(=O)N[C@@H](CC(=O)N2CCC(N3Cc4ccccc4NC3=O)CC2)C(=O)N2CCC(N3CCCCC3)CC2)c1` [Example 174], the IC50 was in the range of 100 to 1000 nM.

As for `O=C(N[C@@H](CC(=O)N1CCC(N2Cc3ccccc3NC2=O)CC1)C(=O)N1CCC(N2CCCCC2)CC1)c1cccc(Cl)c1Cl` [Example 123], the IC50 lay within 10 to 100 nM.

In the case of `Cc1cc(CC(NC(=O)N2CCC3(CC2)CC(=O)Nc2ccccc23)C(=O)N2CCCCC2)cc2cn[nH]c12` (racemic) [Example 32, (±)-1-(7-Methyl-1H-indazol-5-ylmethyl)-2-[1-piperidinyl]-2-oxoethyl]3′,4′-dihydro-2′-oxospiro-[piperidine-4,4′-(1H)-quinoline]-1-carboxamide], the IC50 lay in the range of 100 to 1000 nM.

Turning to `Cc1ccc(F)cc1NC(=O)N[C@@H](CC(=O)N1CCC(N2Cc3ccccc3NC2=O)CC1)C(=O)N1CCC(N2CCCCC2)CC1` [Example 195], the IC50 is 100 to 1000 nM.

In the case of `O=C(Nc1cccc(C(F)(F)F)c1)N[C@@H](CC(=O)N1CCC(N2Cc3ccccc3NC2=O)CC1)C(=O)N1CCC(N2CCCCC2)CC1` [Example 153], the IC50 is 100 to 1000 nM.

Consider `O=C(N[C@@H](CC(=O)N1CCC(N2Cc3ccccc3NC2=O)CC1)C(=O)N1CCC(N2CCCCC2)CC1)c1ccc(Br)cc1` [Example 119], for which the IC50 was in the range of 100 to 1000 nM.

Regarding `O=C(NC(Cn1ccc(O)cc1=O)C(=O)N1CCC(N2CCCCC2)CC1)N1CCC(N2Cc3ccccc3NC2=O)CC1` (racemic) [Example 52, (±)-4-(2-Oxo-1,4-dihydro-2H-quinazolin-3-yl)-piperidine-1-carboxylic acid[2-[1,4′]bipiperidinyl-1′-yl-1-(4-hydroxy-2-oxo-2H-pyridin-1-ylmethyl)-2-oxo-ethyl]-amide], the IC50 was > 1000 nM.

`O=C(NC(CN1CCC(O)CC1)C(=O)N1CCC(N2CCCCC2)CC1)N1CCC(N2Cc3ccccc3NC2=O)CC1` (racemic) [Example 53, (±)-4-(2-Oxo-1,4-dihydro-2H-quinazolin-3-yl)-piperidine-1-carboxylic acid[2-[1,4′]bipiperidinyl-1′-yl-1-(4-hydroxy-piperidin-1-ylmethyl)-2-oxo-ethyl]-amide]: the IC50 was > 1000 nM.

Take `COc1cc(NC(=O)N[C@@H](CC(=O)N2CCC(N3Cc4ccccc4NC3=O)CC2)C(=O)N2CCC(N3CCCCC3)CC2)cc(OC)c1` [Example 165]: the half-inhibitory concentration (IC50) lay within 100 to 1000 nM.

`CCCN1CCN(C(=O)C(Cc2ccc3[nH]ncc3c2)NC(=O)N2CCC(N3Cc4ccccc4NC3=O)CC2)CC1` (stereo not drawn) [Example 40d]: the IC50 was 100 to 1000 nM.

With `COc1ccc(CC(NC(=O)N2CCC(N3Cc4ccccc4NC3=O)CC2)C(=O)N2CCC(N3CCCCC3)CC2)cn1` (racemic) [Example 57, (±)-4-(2-Oxo-1,4-dihydro-2H-quinazolin-3-yl)-piperidine-1-carboxylic acid[2-[1,4′]bipiperidinyl-1′-yl-1-(6-methoxy-pyridin-3-ylmethyl)-2-oxo-ethyl]-amide], the IC50 fell in the range of 100 to 1000 nM.

In the case of `O=C(OCc1ccccc1C(=O)N[C@@H](CC(=O)N1CCC(N2Cc3ccccc3NC2=O)CC1)C(=O)N1CCC(N2CCCCC2)CC1)c1ccccc1` [Example 118], the IC50 fell in the range of 100 to 1000 nM.

`O=C(NC(Cc1ccc2[nH]ncc2c1)C(=O)N1CCN(Cc2ccco2)CC1)N1CCC(N2Cc3ccccc3NC2=O)CC1` (stereo not drawn) [Example 40e]: the IC50 is > 1000 nM.
